# What was measured:
# Acinetobacter baumannii = test: Molecular phenotypic antimicrobial susceptibility test (extraction/DNA purification prior to PCR); format: cell-based
# Procedure: Detection of Molecular Phenotypic Antimicrobial Susceptibility. Disclosed herein are the methods for the detection of phenotypic antimicrobial susceptibility via molecular methods. The present invention describes how a specimen 100 with a known microbial load is incubated and then exposed to a panel of antimicrobial agents to determine sensitivity (prevention of growth) or resistance (allowance of growth) to the specific antimicrobial agents tested utilizing molecular methods. Sample Collection. Specimens 100 are collected from patients using sterile collection processes that are employed in routine clinical care. Specimens are transported to the testing facility in boric acid preservative. […] The specimens 100 are put through a pathogen identification process using PCR technology (e.g., using the first sample 104). The process for pathogen isolation includes steps of harvesting the pathogen (e.g., via centrifugation), isolating pathogen DNA via a DNA isolation and/or purification kit, and performing PCR on the pathogen DNA via PCR components (e.g., primers, enzymes, buffers) as would be known to the skilled artisan. Simultaneously, an additional aliquot of the same specimen (e.g., the second sample 108) is placed with liquid culture media and incubated for 4-6 hours. This aliquot is used for antimicrobial susceptibility testing if indicated based on the pathogen detection results. […] Specimens 100 with lower pathogen loads could also be utilized in the antibiotic susceptibility phase of testing with or without a longer incubation period. […] Antimicrobial solutions are prepared at known concentrations. The specific antimicrobials and their concentrations are selected based on the pathogen of interest and the described antimicrobial resistance breakpoints for that specimen pathogen and antimicrobial combination. These antimicrobials have been selected based on those commonly utilized by healthcare providers in routine clinical care for the specific type of suspected infection. The number and types of antimicrobials utilized can be customized based on the infection source, pathogen detected, patient-specific factors such as allergies or other health conditions (e.g., chronic kidney disease or concurrent medication use), or healthcare provider preferences such as antimicrobial availability or cost. The antimicrobial solutions are prepared in liquid culture media (such as Muller Hinton Broth) to achieve the desired antimicrobial concentration and are then stored at −80° C. until use. For a given specimen, each antimicrobial is tested at a single or multiple antimicrobial concentration(s) which is its established breakpoints for sensitivity. The antimicrobial solutions are prepared and plated out for each specific pathogen. This allows ease of use on the day of testing after defrosting the plate 112. Table 1, which illustrates the results of molecular phenotypic antimicrobial susceptibility testing when more than one organism is present in the source specimen, provides an example of an antimicrobial plate 112 prepared for this purpose. Of note, control wells containing only culture media are present on all plates 112. This allows for evaluation of pathogen load when no antimicrobial is present. Specimen Exposure to Antimicrobial Agents. The 1 mL aliquot of the specimen 100 previously mixed with culture media and incubated is obtained. Using optical density measurements as a guide, the specimen 100 is diluted to 0.5 McFarland. The specimen 100 is then placed into the previously prepared antimicrobial susceptibility testing plate 112. Each plate 112 is prepared for a single specimen 100 for a specified pathogen based on its detection. For example, if the specimen 100 has more than one pathogen detected that needs different antimicrobial concentrations for exposure due to different minimum inhibitory concentration breakpoints for one or more organisms, then more than one antimicrobial exposure plate 112 may be needed. […]
# S. aureus = test: Molecular phenotypic antimicrobial susceptibility test with direct PCR (no extraction DNA purification step); format: cell-based, Staphylococcus aureus; conditions: for Molecular Antimicrobial Susceptibility Result: S. aureus isolate NR-46412 HIP13170, at sensitive breakpoint; for Ct at Sensitive Breakpoint: S. aureus isolate NR-46412 HIP13170, Ct at control (average) 18.824
# Procedure: Detection of Molecular Phenotypic Antimicrobial Susceptibility. Disclosed herein are the methods for the detection of phenotypic antimicrobial susceptibility via molecular methods. The present invention describes how a specimen 100 with a known microbial load is incubated and then exposed to a panel of antimicrobial agents to determine sensitivity (prevention of growth) or resistance (allowance of growth) to the specific antimicrobial agents tested utilizing molecular methods.
# Sample Collection. Specimens 100 are collected from patients using sterile collection processes that are employed in routine clinical care. Specimens are transported to the testing facility in boric acid preservative.
# Preparation of the Specimens for Testing. […] The process for pathogen isolation includes steps of harvesting the pathogen (e.g., via centrifugation), isolating pathogen DNA via a DNA isolation and/or purification kit, and performing PCR on the pathogen DNA via PCR components (e.g., primers, enzymes, buffers) as would be known to the skilled artisan. […] This aliquot is used for antimicrobial susceptibility testing if indicated based on the pathogen detection results. […] Specimens 100 with lower pathogen loads could also be utilized in the antibiotic susceptibility phase of testing with or without a longer incubation period.
# Preparation of Antimicrobial Susceptibility Testing Plates. Antimicrobial solutions are prepared at known concentrations. The specific antimicrobials and their concentrations are selected based on the pathogen of interest and the described antimicrobial resistance breakpoints for that specimen pathogen and antimicrobial combination. These antimicrobials have been selected based on those commonly utilized by healthcare providers in routine clinical care for the specific type of suspected infection. The number and types of antimicrobials utilized can be customized based on the infection source, pathogen detected, patient-specific factors such as allergies or other health conditions (e.g., chronic kidney disease or concurrent medication use), or healthcare provider preferences such as antimicrobial availability or cost.
# The antimicrobial solutions are prepared in liquid culture media (such as Muller Hinton Broth) to achieve the desired antimicrobial concentration and are then stored at −80° C. until use. For a given specimen, each antimicrobial is tested at a single or multiple antimicrobial concentration(s) which is its established breakpoints for sensitivity. The antimicrobial solutions are prepared and plated out for each specific pathogen. […] This allows for evaluation of pathogen load when no antimicrobial is present.
# Specimen Exposure to Antimicrobial Agents. The 1 mL aliquot of the specimen 100 previously mixed with culture media and incubated is obtained. Using optical density measurements as a guide, the specimen 100 is diluted to 0.5 McFarland.
# Antimicrobial exposure plates are typically placed into an incubator for 12-16 hours.
# Nucleic Acid Amplification of Antimicrobial Agent Exposed Pathogens. The antimicrobial exposure plate is removed after the period of incubation. The specimen then undergoes a purification or lysis step. For example, the specimen may undergo a purification step (e.g., magnetic bead-based or other separation protocol to isolate genetic material). In another example, the specimen may undergo a cell lysis step. For example, buffer (e.g., lysis buffer) may be added and incubated in the thermal cycler for preparation for direct PCR. Next, the specimen may undergo a polymerase chain reaction (PCR) testing protocol, whereby a semi-quantitative PCR method is utilized. This may be completed either with or without a specific extraction protocol step. The pathogens can be individually targeted and detected, or a universal genetic sequence can be utilized to detect the antimicrobial susceptibility of the specimen as a whole.
# [1] = A. baumannii isolate 4, Ct at control (average) 18.061
# [2] = A. baumannii isolate 4, at sensitive breakpoint
# [3] = A. baumannii isolate 5, Ct at control (average) 18.191
# [4] = A. baumannii isolate 5, at sensitive breakpoint
# [5] = A. baumannii isolate 1, Ct at control (average) 18.811
# [6] = A. baumannii isolate 1, at sensitive breakpoint
# [7] = A. baumannii isolate 2, Ct at control (average) 18.763
# [8] = A. baumannii isolate 2, at sensitive breakpoint
# [9] = A. baumannii isolate 3, Ct at control (average) 18.799
# [10] = A. baumannii isolate 3, at sensitive breakpoint
Compound,Ct at Sensitive Breakpoint (Acinetobacter baumannii; [1]),Molecular Antimicrobial Susceptibility Result (Acinetobacter baumannii; [2]),Ct at Sensitive Breakpoint (Acinetobacter baumannii; [3]),Molecular Antimicrobial Susceptibility Result (Acinetobacter baumannii; [4]),Molecular Antimicrobial Susceptibility Result (S. aureus),Ct at Sensitive Breakpoint (Acinetobacter baumannii; [5]),Molecular Antimicrobial Susceptibility Result (Acinetobacter baumannii; [6]),Ct at Sensitive Breakpoint (Acinetobacter baumannii; [7]),Molecular Antimicrobial Susceptibility Result (Acinetobacter baumannii; [8]),Ct at Sensitive Breakpoint (Acinetobacter baumannii; [9]),Molecular Antimicrobial Susceptibility Result (Acinetobacter baumannii; [10]),Ct at Sensitive Breakpoint (S. aureus)
Gentamicin,19.380,Sensitive (Antimicrobial wells with pathogen load detected below the control wells (typically >2 cycle thresholds later) may be reported as Sensitive),19.399,Sensitive (Antimicrobial wells with pathogen load detected below the control wells (typically >2 cycle thresholds later) may be reported as Sensitive),Resistant,–,–,–,–,–,–,–
O=C(O)c1cn(C2CC2)c2cc(N3CCNCC3)c(F)cc2c1=O [Ciprofloxacin],18.101,Resistant,18.773,Resistant,Resistant,16.306,Resistant,19.471,Resistant,17.802,Resistant,18.586
Trimethoprim/Sulfamethoxazole [TMP/SMX],23.297,Sensitive (Antimicrobial wells with pathogen load detected below the control wells (typically >2 cycle thresholds later) may be reported as Sensitive),22.742,Sensitive (Antimicrobial wells with pathogen load detected below the control wells (typically >2 cycle thresholds later) may be reported as Sensitive),Sensitive (Antimicrobial wells with pathogen load detected below the control wells (typically >2 cycle thresholds later) may be reported as Sensitive),22.888,Sensitive (Antimicrobial wells with pathogen load detected below the control wells (typically >2 cycle thresholds later) may be reported as Sensitive),22.916,Sensitive (Antimicrobial wells with pathogen load detected below the control wells (typically >2 cycle thresholds later) may be reported as Sensitive),22.407,Sensitive (Antimicrobial wells with pathogen load detected below the control wells (typically >2 cycle thresholds later) may be reported as Sensitive),28.63
